Values quoted from earlier work in US11046725B2, “Galactoside inhibitor of galectins” (GALECTO BIOTECH AB, priority 2018, dated 2021).

Target: Galectin-1 (Homo sapiens (Human), UniProt P09382)
Conditions: T. Delaine, 2016; read-out: affinity to Galectin-1; cited from earlier work

Galectin-1, sequence (P09382 whole entry, species assumed): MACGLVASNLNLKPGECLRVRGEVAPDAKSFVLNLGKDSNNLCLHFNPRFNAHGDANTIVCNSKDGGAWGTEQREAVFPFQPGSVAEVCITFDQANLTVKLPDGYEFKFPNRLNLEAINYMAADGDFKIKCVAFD

OCC1O[C@@H](SC2O[C@H](CO)C(O)C(n3cc(-c4ccsc4)nn3)[C@H]2O)C(O)C(n2cc(-c3ccsc3)nn2)[C@H]1O (stereo partly shown)
Kd: < 10 nM
